Measurements taken from PubChem BioAssay AID1963982 (Molecular Pharmacology Branch, DTP, NCI, 2024).

Tested on: 313798-341-R-J2-PDC spheroids, viability
Experiment: Anticancer human tumor 313798-341-R-J2-PDC patient-derived cervical squamous cell carcinoma cell line growth inhibition [PI3K]
Conditions: spheroids with HUVEC and MSC; for IC50: curve of first compound; for viability, T/C: stronger effect = lower value
Outline: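 Complex 3D spheroids (cancer cells + endothelial HUVEC + mesenchymal stem cells); drug pairs of targeted agent x inavolisib/alpelisib/duvelisib/copanlisib; half-log series from ~Cmax, max 10 microM if Cmax unknown; endpoint viability.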

[1] = second compound 0.00316 µM, first compound 0.0316 µM
[2] = second compound 0.00316 µM, first compound 0.1 µM
[3] = second compound 0.01 µM, first compound 0.0316 µM
[4] = second compound 0.01 µM, first compound 0.1 µM
[5] = second compound 0.0316 µM, first compound 0.0316 µM
[6] = second compound 0.0316 µM, first compound 0.1 µM
[7] = second compound 0.1 µM, first compound 0.0316 µM
[8] = second compound 0.1 µM, first compound 0.1 µM
[9] = second compound 0.316 µM, first compound 0.0316 µM
[10] = second compound 0.316 µM, first compound 0.1 µM
[11] = second compound 1 µM, first compound 0.0316 µM
[12] = second compound 1 µM, first compound 0.1 µM
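Also: spheroids exposed to compounds for seven days.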
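For viability, T/C in this document: 100% = DMSO vehicle control viability.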

`Cn1nccc1Nc1nccc(-c2ccn(C(CO)c3ccc(Cl)c(F)c3)c(=O)c2)n1` (centres undefined) + CC(Nc1ccc2c(c1)OCCn1cc(N3C(=O)OCC3C(F)F)nc1-2)C(N)=O was tested, and the IC50 (second compound 0.00316 µM) was > 10000 nM, the IC50 (second compound 0.01 µM) was > 10000 nM and the IC50 (second compound 0.0316 µM) was > 10000 nM. The IC50 (second compound 0.1 µM) was > 10000 nM, the IC50 (second compound 0.316 µM) was > 10000 nM and the IC50 (second compound 1 µM) was 219 nM. For the same compound, the viability, T/C [1] was 98.2%, the viability, T/C [2] was 96% and the viability, T/C (second compound 0.00316 µM, first compound 0.316 µM) was 90.5%. It also gave a viability, T/C (second compound 0.00316 µM, first compound 1 µM) of 97.2%, a viability, T/C (second compound 0.00316 µM, first compound 3.16 µM) of 103% and a viability, T/C (second compound 0.00316 µM, first compound 10 µM) of 100%. It also gave a viability, T/C [3] of 98.7%, a viability, T/C [4] of 97.9% and a viability, T/C (second compound 0.01 µM, first compound 0.316 µM) of 87.9%. For the same compound, the viability, T/C (second compound 0.01 µM, first compound 1 µM) was 111%, the viability, T/C (second compound 0.01 µM, first compound 3.16 µM) was 121% and the viability, T/C (second compound 0.01 µM, first compound 10 µM) was 102%. It also gave a viability, T/C [5] of 109%, a viability, T/C [6] of 98.6% and a viability, T/C (second compound 0.0316 µM, first compound 0.316 µM) of 102%. For the same compound, the viability, T/C (second compound 0.0316 µM, first compound 1 µM) was 112%, the viability, T/C (second compound 0.0316 µM, first compound 3.16 µM) was 115% and the viability, T/C (second compound 0.0316 µM, first compound 10 µM) was 99.5%. The viability, T/C [7] was 98%, the viability, T/C [8] was 95% and the viability, T/C (second compound 0.1 µM, first compound 0.316 µM) was 93.6%. It also gave a viability, T/C (second compound 0.1 µM, first compound 1 µM) of 94.8%, a viability, T/C (second compound 0.1 µM, first compound 3.16 µM) of 89.4% and a viability, T/C (second compound 0.1 µM, first compound 10 µM) of 80.2%. The viability, T/C [9] was 77%, the viability, T/C [10] was 66.4% and the viability, T/C (second compound 0.316 µM, first compound 0.316 µM) was 65.7%. For the same compound, the viability, T/C (second compound 0.316 µM, first compound 1 µM) was 58.5%, the viability, T/C (second compound 0.316 µM, first compound 3.16 µM) was 66.8% and the viability, T/C (second compound 0.316 µM, first compound 10 µM) was 51.6%. The viability, T/C [11] was 59%, the viability, T/C [12] was 46.1% and the viability, T/C (second compound 1 µM, first compound 0.316 µM) was 46.8%. It also gave a viability, T/C (second compound 1 µM, first compound 1 µM) of 46.5%, a viability, T/C (second compound 1 µM, first compound 3.16 µM) of 52.7% and a viability, T/C (second compound 1 µM, first compound 10 µM) of 34.9%.
Work on `CC(C)n1nc(-c2ccc3oc(N)nc3c2)c2c(N)ncnc21` + COc1c(OCCCN2CCOCC2)ccc2c3n(c(=NC(=O)c4cnc(N)nc4)nc12)CCN3 yielded an IC50 (second compound 0.00316 µM) of 59.1 nM, an IC50 (second compound 0.01 µM) of 48.8 nM and an IC50 (second compound 0.0316 µM) of 18 nM. The IC50 (second compound 0.1 µM) was < 0.316 nM, the IC50 (second compound 0.316 µM) was < 0.316 nM and the IC50 (second compound 1 µM) was < 0.316 nM. It also gave a viability, T/C (second compound 0.00316 µM, first compound 0.000316 µM) of 94.2%, a viability, T/C (second compound 0.00316 µM, first compound 0.001 µM) of 99% and a viability, T/C (second compound 0.00316 µM, first compound 0.00316 µM) of 97.3%. It also gave a viability, T/C (second compound 0.00316 µM, first compound 0.01 µM) of 84%, a viability, T/C [1] of 62.8% and a viability, T/C [2] of 39.6%. The viability, T/C (second compound 0.01 µM, first compound 0.000316 µM) was 98.1%, the viability, T/C (second compound 0.01 µM, first compound 0.001 µM) was 83.9% and the viability, T/C (second compound 0.01 µM, first compound 0.00316 µM) was 83.3%. The viability, T/C (second compound 0.01 µM, first compound 0.01 µM) was 74%, the viability, T/C [3] was 59.6% and the viability, T/C [4] was 35.4%. It also gave a viability, T/C (second compound 0.0316 µM, first compound 0.000316 µM) of 72.1%, a viability, T/C (second compound 0.0316 µM, first compound 0.001 µM) of 72.2% and a viability, T/C (second compound 0.0316 µM, first compound 0.00316 µM) of 85.8%. For the same compound, the viability, T/C (second compound 0.0316 µM, first compound 0.01 µM) was 52%, the viability, T/C [5] was 44.3% and the viability, T/C [6] was 23.6%. For the same compound, the viability, T/C (second compound 0.1 µM, first compound 0.000316 µM) was 41.4%, the viability, T/C (second compound 0.1 µM, first compound 0.001 µM) was 39.7% and the viability, T/C (second compound 0.1 µM, first compound 0.00316 µM) was 40.2%. For the same compound, the viability, T/C (second compound 0.1 µM, first compound 0.01 µM) was 31.8%, the viability, T/C [7] was 23.9% and the viability, T/C [8] was 13.4%. It also gave a viability, T/C (second compound 0.316 µM, first compound 0.000316 µM) of 17.7%, a viability, T/C (second compound 0.316 µM, first compound 0.001 µM) of 17.5% and a viability, T/C (second compound 0.316 µM, first compound 0.00316 µM) of 15.3%. For the same compound, the viability, T/C (second compound 0.316 µM, first compound 0.01 µM) was 13.8%, the viability, T/C [9] was 14.3% and the viability, T/C [10] was 8.89%. It also gave a viability, T/C (second compound 1 µM, first compound 0.000316 µM) of 13.2%, a viability, T/C (second compound 1 µM, first compound 0.001 µM) of 10.9% and a viability, T/C (second compound 1 µM, first compound 0.00316 µM) of 10.3%. For the same compound, the viability, T/C (second compound 1 µM, first compound 0.01 µM) was 12.2%, the viability, T/C [11] was 12.9% and the viability, T/C [12] was 8.5%.
